From ChEMBL document CHEMBL5291721, “A preclinical secondary pharmacology resource illuminates target-adverse drug reaction associations of marketed drugs” (Nat Commun, 2023)

How the values were obtained:
[1] = biological target: T1, Alpha-1A adrenergic receptor (Homo sapiens, UniProt P35348)
T1 sequence (P35348 whole entry): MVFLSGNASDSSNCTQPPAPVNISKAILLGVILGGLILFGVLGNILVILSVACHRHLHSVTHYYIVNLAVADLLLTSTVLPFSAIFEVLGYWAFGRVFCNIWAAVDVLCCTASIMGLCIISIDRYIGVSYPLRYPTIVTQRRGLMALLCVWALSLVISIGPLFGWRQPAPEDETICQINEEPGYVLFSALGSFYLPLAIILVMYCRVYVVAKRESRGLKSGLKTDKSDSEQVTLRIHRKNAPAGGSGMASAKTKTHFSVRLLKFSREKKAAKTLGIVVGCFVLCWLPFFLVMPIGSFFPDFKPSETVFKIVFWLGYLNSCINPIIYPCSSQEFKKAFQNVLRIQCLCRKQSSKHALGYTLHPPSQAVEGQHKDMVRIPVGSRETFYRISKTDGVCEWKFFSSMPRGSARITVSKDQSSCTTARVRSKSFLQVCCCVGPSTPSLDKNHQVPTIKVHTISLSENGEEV

[2] = biological target: T2, Alpha-2B adrenergic receptor (Homo sapiens, UniProt P18089)
T2 sequence (P18089 whole entry): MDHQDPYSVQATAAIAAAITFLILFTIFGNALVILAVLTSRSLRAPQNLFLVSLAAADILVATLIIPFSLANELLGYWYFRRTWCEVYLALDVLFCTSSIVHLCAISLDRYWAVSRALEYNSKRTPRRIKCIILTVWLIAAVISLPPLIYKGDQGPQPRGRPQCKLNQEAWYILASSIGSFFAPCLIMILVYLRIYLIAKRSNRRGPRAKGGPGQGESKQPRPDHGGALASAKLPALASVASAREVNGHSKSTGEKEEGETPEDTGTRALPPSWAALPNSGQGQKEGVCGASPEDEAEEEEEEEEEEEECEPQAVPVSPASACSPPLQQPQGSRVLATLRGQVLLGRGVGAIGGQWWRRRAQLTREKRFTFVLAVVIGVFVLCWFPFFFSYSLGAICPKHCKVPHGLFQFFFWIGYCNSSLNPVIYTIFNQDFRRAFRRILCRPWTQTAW

[3] = biological target: Beta-2 adrenergic receptor (Homo sapiens, UniProt P07550)
[4] = biological target: Voltage-dependent L-type calcium channel subunit alpha-1C (Rattus norvegicus, UniProt P22002); assay type: functional
[5] = biological target: T3, Muscarinic acetylcholine receptor M1 (Homo sapiens, UniProt P11229); assay type: functional
T3 sequence (P11229 whole entry): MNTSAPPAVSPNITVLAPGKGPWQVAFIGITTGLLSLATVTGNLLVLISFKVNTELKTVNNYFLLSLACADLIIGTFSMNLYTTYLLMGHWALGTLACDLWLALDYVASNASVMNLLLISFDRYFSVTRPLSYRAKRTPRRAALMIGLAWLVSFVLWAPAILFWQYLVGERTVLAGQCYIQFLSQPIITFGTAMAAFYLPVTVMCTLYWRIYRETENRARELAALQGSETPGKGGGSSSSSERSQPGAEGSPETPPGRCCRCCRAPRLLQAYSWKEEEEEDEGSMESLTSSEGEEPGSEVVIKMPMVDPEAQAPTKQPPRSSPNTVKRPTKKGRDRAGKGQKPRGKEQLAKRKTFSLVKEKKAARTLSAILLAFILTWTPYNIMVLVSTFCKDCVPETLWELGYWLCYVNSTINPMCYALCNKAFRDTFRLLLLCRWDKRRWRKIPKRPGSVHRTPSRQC

[6] = biological target: Muscarinic acetylcholine receptor M3 (Homo sapiens, UniProt P20309)
Cannabinoid receptor 1 = Cannabinoid receptor 1 (Homo sapiens, UniProt P21554)
Estrogen receptor = biological target: T4, Estrogen receptor (Homo sapiens, UniProt P03372)
T4 sequence (P03372 whole entry): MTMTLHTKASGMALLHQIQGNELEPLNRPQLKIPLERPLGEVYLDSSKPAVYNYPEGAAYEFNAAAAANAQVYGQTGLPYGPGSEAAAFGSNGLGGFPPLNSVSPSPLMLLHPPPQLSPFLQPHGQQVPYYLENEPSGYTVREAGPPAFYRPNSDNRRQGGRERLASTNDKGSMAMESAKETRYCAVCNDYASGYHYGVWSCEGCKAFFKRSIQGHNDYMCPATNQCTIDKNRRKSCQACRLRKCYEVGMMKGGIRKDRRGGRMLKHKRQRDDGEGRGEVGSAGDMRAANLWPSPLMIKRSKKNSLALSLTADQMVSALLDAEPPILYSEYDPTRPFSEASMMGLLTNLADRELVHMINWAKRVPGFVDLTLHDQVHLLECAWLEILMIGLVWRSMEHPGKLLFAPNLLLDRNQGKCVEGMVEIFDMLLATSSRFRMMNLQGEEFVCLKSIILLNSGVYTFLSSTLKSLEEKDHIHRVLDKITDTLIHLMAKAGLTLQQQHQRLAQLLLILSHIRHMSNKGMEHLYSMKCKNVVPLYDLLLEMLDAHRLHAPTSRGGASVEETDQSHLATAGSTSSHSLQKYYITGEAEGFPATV

Melanocortin receptor 4 = Melanocortin receptor 4 (Homo sapiens, UniProt P32245)
[7] = biological target: T5, Equilibrative nucleoside transporter 1 (Homo sapiens, UniProt Q99808)
T5 sequence (Q99808 whole entry): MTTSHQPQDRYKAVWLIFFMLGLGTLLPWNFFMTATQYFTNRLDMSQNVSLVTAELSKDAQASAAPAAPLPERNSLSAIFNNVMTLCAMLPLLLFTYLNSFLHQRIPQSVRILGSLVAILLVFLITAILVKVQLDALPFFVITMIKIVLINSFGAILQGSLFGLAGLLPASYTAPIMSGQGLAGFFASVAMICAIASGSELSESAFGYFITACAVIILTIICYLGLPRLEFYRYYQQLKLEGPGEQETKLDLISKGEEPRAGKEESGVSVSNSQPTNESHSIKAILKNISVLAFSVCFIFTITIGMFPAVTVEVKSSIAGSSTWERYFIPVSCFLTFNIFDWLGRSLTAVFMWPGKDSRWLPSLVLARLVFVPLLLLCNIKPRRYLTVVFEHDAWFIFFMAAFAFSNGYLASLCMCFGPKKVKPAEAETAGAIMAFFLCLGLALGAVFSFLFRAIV

Histamine H3 receptor = Histamine H3 receptor (Homo sapiens, UniProt Q9Y5N1)
Note: assay procedure not described here.

Sequence of Voltage-dependent L-type calcium channel subunit alpha-1C (P22002 whole entry): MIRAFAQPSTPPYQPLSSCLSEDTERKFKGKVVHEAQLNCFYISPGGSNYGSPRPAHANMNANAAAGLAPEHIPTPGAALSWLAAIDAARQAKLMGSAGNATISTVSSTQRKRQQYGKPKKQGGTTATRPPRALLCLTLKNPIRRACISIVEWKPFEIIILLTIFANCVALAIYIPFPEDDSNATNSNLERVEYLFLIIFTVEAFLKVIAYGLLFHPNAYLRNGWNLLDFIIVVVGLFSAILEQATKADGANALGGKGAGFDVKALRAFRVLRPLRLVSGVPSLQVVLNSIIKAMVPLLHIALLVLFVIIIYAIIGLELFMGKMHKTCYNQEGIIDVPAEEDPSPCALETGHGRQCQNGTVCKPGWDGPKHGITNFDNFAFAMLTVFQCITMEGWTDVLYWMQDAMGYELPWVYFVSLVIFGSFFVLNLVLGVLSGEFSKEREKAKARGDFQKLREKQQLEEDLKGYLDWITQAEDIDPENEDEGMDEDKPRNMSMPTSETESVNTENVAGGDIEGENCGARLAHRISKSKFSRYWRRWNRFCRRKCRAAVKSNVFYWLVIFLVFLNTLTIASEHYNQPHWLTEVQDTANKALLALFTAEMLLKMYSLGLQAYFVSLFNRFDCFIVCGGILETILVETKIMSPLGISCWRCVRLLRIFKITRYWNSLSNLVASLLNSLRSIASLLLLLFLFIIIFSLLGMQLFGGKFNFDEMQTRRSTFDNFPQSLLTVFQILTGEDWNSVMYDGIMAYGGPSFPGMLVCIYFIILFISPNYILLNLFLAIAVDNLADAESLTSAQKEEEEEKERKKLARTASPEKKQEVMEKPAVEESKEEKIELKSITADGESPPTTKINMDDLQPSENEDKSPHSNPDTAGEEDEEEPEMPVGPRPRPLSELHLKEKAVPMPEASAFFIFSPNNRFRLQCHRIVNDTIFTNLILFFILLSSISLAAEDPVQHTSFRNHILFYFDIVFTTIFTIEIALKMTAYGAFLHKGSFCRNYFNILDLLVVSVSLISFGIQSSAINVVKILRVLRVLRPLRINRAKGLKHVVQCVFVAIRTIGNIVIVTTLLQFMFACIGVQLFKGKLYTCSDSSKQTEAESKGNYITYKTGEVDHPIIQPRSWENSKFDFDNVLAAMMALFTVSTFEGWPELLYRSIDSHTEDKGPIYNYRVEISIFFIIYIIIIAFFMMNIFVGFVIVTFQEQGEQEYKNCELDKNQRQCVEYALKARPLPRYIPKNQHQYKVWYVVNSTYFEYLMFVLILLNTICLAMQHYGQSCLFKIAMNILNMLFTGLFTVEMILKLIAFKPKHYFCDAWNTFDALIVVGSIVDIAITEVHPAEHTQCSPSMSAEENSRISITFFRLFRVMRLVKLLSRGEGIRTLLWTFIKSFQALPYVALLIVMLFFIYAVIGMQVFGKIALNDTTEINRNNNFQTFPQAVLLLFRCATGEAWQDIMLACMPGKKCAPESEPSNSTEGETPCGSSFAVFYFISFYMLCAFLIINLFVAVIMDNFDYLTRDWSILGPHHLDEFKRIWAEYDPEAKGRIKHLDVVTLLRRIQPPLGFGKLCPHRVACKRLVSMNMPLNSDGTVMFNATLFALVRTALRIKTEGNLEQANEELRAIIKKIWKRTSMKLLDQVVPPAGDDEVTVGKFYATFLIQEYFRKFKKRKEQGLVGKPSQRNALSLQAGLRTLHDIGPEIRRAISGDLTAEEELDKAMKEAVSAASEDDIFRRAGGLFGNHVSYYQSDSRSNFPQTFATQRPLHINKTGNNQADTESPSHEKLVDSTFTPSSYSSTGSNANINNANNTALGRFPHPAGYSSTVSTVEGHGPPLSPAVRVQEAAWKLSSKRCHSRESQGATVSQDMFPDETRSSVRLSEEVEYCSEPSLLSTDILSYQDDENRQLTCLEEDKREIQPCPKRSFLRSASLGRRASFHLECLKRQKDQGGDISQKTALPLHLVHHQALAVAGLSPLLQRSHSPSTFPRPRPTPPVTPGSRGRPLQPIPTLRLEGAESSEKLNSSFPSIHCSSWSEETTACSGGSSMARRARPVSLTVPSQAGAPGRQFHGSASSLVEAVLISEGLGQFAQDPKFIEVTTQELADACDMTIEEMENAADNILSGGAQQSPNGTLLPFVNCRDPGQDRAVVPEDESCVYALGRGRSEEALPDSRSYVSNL
Sequence of Melanocortin receptor 4 (P32245 whole entry): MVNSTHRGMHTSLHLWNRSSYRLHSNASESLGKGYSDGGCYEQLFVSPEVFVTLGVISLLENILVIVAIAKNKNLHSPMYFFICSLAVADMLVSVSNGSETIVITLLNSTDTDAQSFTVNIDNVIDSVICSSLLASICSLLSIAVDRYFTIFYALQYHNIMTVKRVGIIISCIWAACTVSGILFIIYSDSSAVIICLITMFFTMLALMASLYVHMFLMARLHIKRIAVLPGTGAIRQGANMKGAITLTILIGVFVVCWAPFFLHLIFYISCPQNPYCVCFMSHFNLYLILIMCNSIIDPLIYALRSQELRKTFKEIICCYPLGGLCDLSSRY
Sequence of Histamine H3 receptor (Q9Y5N1 whole entry): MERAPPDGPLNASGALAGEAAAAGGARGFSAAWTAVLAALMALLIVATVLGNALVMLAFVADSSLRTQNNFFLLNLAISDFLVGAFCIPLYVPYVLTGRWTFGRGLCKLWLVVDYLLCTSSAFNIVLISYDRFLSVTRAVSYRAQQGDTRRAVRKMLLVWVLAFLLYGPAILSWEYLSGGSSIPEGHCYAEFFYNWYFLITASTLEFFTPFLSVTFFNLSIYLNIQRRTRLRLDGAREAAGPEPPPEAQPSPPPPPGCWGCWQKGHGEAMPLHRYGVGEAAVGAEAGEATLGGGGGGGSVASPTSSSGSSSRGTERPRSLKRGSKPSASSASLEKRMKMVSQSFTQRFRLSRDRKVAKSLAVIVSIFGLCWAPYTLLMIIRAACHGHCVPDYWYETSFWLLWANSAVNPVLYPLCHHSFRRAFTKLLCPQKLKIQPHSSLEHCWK
Sequence of Cannabinoid receptor 1 (P21554 whole entry): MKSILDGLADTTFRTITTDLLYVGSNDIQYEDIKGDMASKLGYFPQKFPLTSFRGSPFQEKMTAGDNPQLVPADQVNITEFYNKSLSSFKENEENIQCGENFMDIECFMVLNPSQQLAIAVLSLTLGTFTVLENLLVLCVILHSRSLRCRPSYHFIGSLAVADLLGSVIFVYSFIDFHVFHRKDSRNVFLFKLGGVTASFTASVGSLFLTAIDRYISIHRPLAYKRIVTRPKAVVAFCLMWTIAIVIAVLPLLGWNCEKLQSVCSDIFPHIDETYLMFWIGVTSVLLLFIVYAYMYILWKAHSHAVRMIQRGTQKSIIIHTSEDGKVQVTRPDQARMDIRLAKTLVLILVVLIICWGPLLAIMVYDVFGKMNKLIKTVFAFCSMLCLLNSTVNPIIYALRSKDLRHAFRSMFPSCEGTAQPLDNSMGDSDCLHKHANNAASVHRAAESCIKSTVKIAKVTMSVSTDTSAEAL
Sequence of Beta-2 adrenergic receptor (P07550 whole entry): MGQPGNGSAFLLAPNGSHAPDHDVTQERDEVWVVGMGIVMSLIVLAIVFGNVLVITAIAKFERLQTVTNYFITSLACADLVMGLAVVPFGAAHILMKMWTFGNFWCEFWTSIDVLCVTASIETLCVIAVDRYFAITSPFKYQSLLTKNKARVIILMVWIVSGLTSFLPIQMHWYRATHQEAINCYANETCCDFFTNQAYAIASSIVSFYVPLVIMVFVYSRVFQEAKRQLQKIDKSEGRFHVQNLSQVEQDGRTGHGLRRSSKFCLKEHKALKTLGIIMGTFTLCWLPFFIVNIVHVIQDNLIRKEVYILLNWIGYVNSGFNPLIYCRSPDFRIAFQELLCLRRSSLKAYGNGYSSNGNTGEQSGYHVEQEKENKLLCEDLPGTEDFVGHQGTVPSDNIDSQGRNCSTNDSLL
Sequence of Muscarinic acetylcholine receptor M3 (P20309 whole entry): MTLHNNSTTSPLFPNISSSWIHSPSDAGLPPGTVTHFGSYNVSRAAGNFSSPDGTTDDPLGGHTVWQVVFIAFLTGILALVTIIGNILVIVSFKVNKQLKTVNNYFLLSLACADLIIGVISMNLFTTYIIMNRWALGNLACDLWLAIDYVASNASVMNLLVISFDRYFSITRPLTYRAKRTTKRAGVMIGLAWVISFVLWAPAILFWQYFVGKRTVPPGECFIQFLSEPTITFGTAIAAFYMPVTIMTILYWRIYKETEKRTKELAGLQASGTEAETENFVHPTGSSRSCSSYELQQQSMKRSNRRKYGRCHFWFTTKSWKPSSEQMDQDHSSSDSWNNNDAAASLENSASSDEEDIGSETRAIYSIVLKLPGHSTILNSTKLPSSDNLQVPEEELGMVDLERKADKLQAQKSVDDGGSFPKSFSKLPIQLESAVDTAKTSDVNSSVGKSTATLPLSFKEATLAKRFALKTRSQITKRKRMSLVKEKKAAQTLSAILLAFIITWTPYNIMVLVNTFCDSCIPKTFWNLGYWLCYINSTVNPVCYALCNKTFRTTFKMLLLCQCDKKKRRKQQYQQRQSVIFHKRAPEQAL

Row | SMILES | AC50 [1] | AC50 [2] | AC50 [3] | AC50 [4] | AC50 [5] | AC50 [6] | AC50 (Cannabinoid receptor 1) | AC50 (Estrogen receptor) | AC50 (Melanocortin receptor 4) | AC50 [7] | AC50 (Histamine H3 receptor)
1 | C[C@]12CC[C@H](O)CC1=CC[C@@H]1[C@@H]2CC[C@]2(C)C(c3cccnc3)=CC[C@@H]12 [ABIRATERONE] | > 10 µM | > 10 µM | > 30 µM | > 10 µM | > 10 µM | > 30 µM | > 10 µM | > 30 µM | > 30 µM | > 30 µM | > 10 µM
2 | COc1ccc2c(c1)[C@]13CCCC[C@@H]1[C@H](C2)N(C)CC3 [DEXTROMETHORPHAN] | 3.58 µM |  | > 10 µM | > 10 µM |  |  | > 10 µM | > 30 µM | > 30 µM | > 30 µM | > 10 µM
3 | CCn1cc(C(=O)O)c(=O)c2cc(F)c(N3CCNCC3)nc21 [ENOXACIN] | > 10 µM |  | > 10 µM | > 10 µM |  |  | > 10 µM | > 30 µM | > 30 µM | > 30 µM | > 10 µM
4 | C#C[C@]1(O)CC[C@H]2[C@@H]3CCc4cc(OC)ccc4[C@H]3CC[C@@]21C [MESTRANOL] | > 30 µM |  | > 10 µM | > 10 µM |  |  | > 10 µM | 0.136 µM | > 10 µM | > 30 µM | 
5 | CNCCCC1c2ccccc2C=Cc2ccccc21 [PROTRIPTYLINE] | 0.461 µM |  |  | > 10 µM |  |  | > 10 µM | > 10 µM | > 10 µM | > 30 µM | 
6 | CN(C)c1cc(NC(=O)CNC(C)(C)C)c(O)c2c1C[C@H]1C[C@H]3[C@H](N(C)C)C(O)=C(C(N)=O)C(=O)[C@@]3(O)C(O)=C1C2=O [TIGECYCLINE] | > 30 µM | > 30 µM | > 30 µM | > 30 µM | 27 µM | > 30 µM | > 30 µM | > 30 µM | > 30 µM | 39.5 µM | > 30 µM
7 | OCCN1CCN(CC/C=C2/c3ccccc3Sc3ccc(Cl)cc32)CC1 [ZUCLOPENTHIXOL] | 0.0114 µM | 0.32 µM | > 10 µM | > 10 µM | > 10 µM | > 10 µM | > 10 µM |  | > 10 µM | > 30 µM | 
